One molecule from patent US20250051519A1, “SOLUTION ELECTROSPUN FIBERS, COMPOSITIONS COMPRISING THE SAME AND A PROCESS OF MANUFACTURING THEREOF” (UNIVERSITEIT GENT, priority 2021, published 2025) can be followed below.

The structures appear in SMILES notation.

Data set [1] in a line: In vivo bioavailability study, oral capsules, plasma levels by LC-MS. The settings on record: dog; analyte Flu in plasma; oral capsule with 200 mg Flu, fasted Beagle dogs, n=5. The protocol:
Capsules of a 00 size were filled with either 50 wt % Flu-PEtOx nanofibrous material or with pure crystalline Flu. Each capsule contained 200 mg of Flu. These capsules were administered to beagles in 2 different sessions with at least 8 days in between both sessions. The study was approved by the ethical commission for animal testing at Ghent University. Before the dogs were fed the capsules, a fasting time of 12 hours was set. Using an intravenous catheter in the vena cephalica blood samples of 3 ml were collected at different time intervalls of 0.5, 1, 2, 4, 6, 8, 12, 16, 20 and 24 hours after administration. Plasma samples were stored at −20° C. until analyzed using an LC-MS method.
A […] flubendazole nanofibrous amorphous solid dispersion was obtained by the solution electrospinning of PEtOx and Flu in a formic acid solvent system. The process conditions were a tip to collector distance of 15 cm, a flow rate of 0.12 ml/h and a voltage of 27.5 kV. Note that this high flubendazole loading was only reached when a PEtOx wt % was used which is lower compared to the minimal required polymer concentration for solution electrospinning pure PEtOx, as shown in Example 4. […] Concentrations of Flu and its two metabolites, H-Flu and R-Flu, were monitored.

Data set [2] is described as follows: Sink in vitro dissolution test of flubendazole samples in 0.1 M HCl. Format: physicochemical. The settings on record: after 10 minutes, sample containing 50 mg flubendazole in 900 ml 0.1 M HCl.
Method: Samples were filtered through a 0.45 μm PTFE filter, diluted and consequently measured via UV-Vis spectroscopy. Experiments were performed in triplicate.

A word on the Cmax: it is the maximum level reached in the sampled fluid or tissue. The term Tmax denotes the time at which the peak concentration occurs. Regarding `COC(=O)Nc1nc2cc(C(=O)c3ccc(F)cc3)ccc2[nH]1` [Flu, Flubendazole], in data set [1], the Cmax was found to be 1.2 ± 0.4 ng/mL and the Tmax came out at 1 ± 0.6 h. Also, the “Dissolution rate (10 min)” value in data set [2] came out at 0.07 ± 0.03 µg/mL/min.
